pIC50, pKi: −log10 of the molar value. Read-outs that look alike come from different tables or passages of the source. Where only a bound is given, the exact number is not on record here.

The target of this test is NAALADase (Homo sapiens, UniProt Q04609). Kind of test: In vitro inhibition of NAALADase activity. It is filed as biochemical.
NAALADase, sequence (Q04609 whole entry): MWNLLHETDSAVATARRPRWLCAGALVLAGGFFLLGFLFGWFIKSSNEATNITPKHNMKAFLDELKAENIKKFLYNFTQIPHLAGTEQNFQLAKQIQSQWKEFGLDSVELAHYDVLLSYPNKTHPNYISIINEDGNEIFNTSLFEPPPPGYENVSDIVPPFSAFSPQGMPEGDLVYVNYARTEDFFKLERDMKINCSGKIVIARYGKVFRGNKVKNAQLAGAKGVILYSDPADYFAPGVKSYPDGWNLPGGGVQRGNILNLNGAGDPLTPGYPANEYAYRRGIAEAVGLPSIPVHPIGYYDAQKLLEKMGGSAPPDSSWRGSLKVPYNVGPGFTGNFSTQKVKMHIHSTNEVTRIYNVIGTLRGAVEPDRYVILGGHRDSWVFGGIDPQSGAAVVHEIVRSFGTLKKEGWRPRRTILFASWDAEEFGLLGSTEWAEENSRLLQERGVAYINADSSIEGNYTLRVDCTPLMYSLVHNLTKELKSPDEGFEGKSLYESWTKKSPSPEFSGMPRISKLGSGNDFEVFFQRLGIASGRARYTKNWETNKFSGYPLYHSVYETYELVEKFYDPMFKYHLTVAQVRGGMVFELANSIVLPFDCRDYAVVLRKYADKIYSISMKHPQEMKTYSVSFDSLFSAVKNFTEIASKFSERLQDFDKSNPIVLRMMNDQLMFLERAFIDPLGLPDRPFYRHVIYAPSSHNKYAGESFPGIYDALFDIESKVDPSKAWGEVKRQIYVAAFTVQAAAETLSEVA

A word on the pIC50: it is the negative decadic logarithm of the IC50, by convention in mol/L. As for `O=C(O)c1ccc(CNC(=O)c2cc(C(=O)O)cc(C(=O)NO)c2)cc1`, the pIC50 (read-out: IC50) was 5.56.

For the compound `O=C(CSCc1ccc(OCc2ccc(C(=O)O)cc2)c(C(=O)O)c1)NO`, the pIC50 (read-out: IC50) is 5.88. On to `O=C(CSCCc1cccc(OCc2ccc(C(=O)O)cc2)c1C(=O)O)NO`, for which the negative logarithm of the IC50 (pIC50) (read-out: IC50) was 4.85. Regarding `O=C(NO)c1ccc(C(=O)c2ccccc2C(=O)NO)cc1`, the pIC50 (read-out: IC50) was no more than 4.00.

`O=C(O)c1cccc(CC(CCCS)C(=O)O)c1` (single isomer, unassigned; (+)) [(+)-3-carboxy-alpha-(3-mercaptopropyl)-benzenepropanoic acid]: where the note is “read-out: IC50”, the pIC50 was 8.15. Regarding `O=C(O)c1cccc(CC(CCCS)C(=O)O)c1` (single isomer, unassigned; (-)) [(−)-3-carboxy-alpha-(3-mercaptopropyl)-benzenepropanoic acid], the negative logarithm of the IC50 (pIC50) (read-out: IC50) was 7.48.

Turning to `O=C(O)C(CCCS)Cc1c(F)c(F)c(F)c(F)c1F` (stereo not drawn) [2,3,4,5,6-pentafluoro-alpha-(3-mercaptopropyl)-benzenepropanoic acid], the pIC50 (read-out: IC50) was 6.00.

Regarding `O=C(NO)c1ccccc1O` [2,N-Dihydroxy-benzamide], under “IC50”, the pIC50 was no more than 4.00. For `O=C(O)c1ccccc1OC(CCCS)C(=O)O` (centres unmarked) [2-(1-carboxy-4-mercaptobutoxy)-benzoic acid], the pIC50 (read-out: IC50) is 5.34.

In the case of `O=C(O)c1ccc(-c2ccccc2)c(CC(CCCS)C(=O)O)c1` (centres unmarked) [2-(2-carboxy-5-mercaptopentyl)-[1,1′-biphenyl]-4-carboxylic acid], the negative-log IC50 (pIC50) (read-out: IC50) is 7.72. Consider `O=C(O)c1cc(OCc2ccccc2)ccc1CCS` [2-(2-mercaptoethyl)-5-(phenylmethoxy)-benzoic acid], for which the pIC50 (read-out: IC50) was 6.42.

`O=C(O)c1c(CCS)cccc1OCCc1ccccc1` [2-(2-mercaptoethyl)-6-(2-phenylethoxy)-benzoic acid]: for the setting “read-out: IC50”, the pIC50 was 6.58.

As to `O=C(O)c1c(CCS)cccc1OCc1ccccc1` [2-(2-mercaptoethyl)-6-(phenylmethoxy)-benzoic acid], the pIC50 (read-out: IC50) is 7.94. Same read-out and setting: then `O=C(O)c1c(CCS)cccc1Oc1ccccc1` [2-(2-mercaptoethyl)-6-phenoxy-benzoic acid], with 5.94; and `O=C(O)c1ccccc1CCS` [2-(2-mercaptoethyl)-benzoic acid], with 6.21; and `CC(C)(C)CCOc1cccc(CCS)c1C(=O)O` [2-(3,3-dimethylbutoxy)-6-(2-mercaptoethyl)-benzoic acid], with 5.59. Same read-out and setting: then `COc1cc(OC)cc(OC(CCCS)C(=O)O)c1` (centres unmarked) [2-(3,5-dimethoxyphenoxy)-5-mercapto-pentanoic acid], with 4.79; and `O=C(O)CCC(CCCSCC(=O)NO)C(=O)O` (centres unmarked) [2-(3-Hydroxycarbamoyl-methylsulfanylpropyl)-pentanedioic acid], with 5.52; and `CC(=O)c1cccc(OC(CCCS)C(=O)O)c1` (centres unmarked) [2-(3-acetylphenoxy)-5-mercapto-pentanoic acid], with 5.54. On to `O=C(O)C(CCCS)Oc1cccc(O)c1` (centres unmarked) [2-(3-hydroxyphenoxy)-5-mercapto-pentanoic acid], for which, for the setting “read-out: IC50”, the pIC50 was 6.07. The same measure, in the same setting: then `CC(=O)c1ccc(OC(CCCS)C(=O)O)cc1` (centres unmarked) [2-(4-acetylphenoxy)-5-mercaptopentanoic acid], with 7.53; and `NC(=O)c1ccccc1CC(CCCS)C(=O)O` (stereo not drawn) [2-(aminocarbonyl)-alpha-(3-mercaptopropyl)-benzenepropanoic acid], with 5.40; and `O=C(O)COc1cccc(CCS)c1C(=O)O` [2-(carboxymethoxy)-6-(2-mercaptoethyl)-benzoic acid], with 6.67.

Regarding `O=C(O)c1ccccc1CS` [2-(mercaptomethyl)-benzoic acid], the pIC50 (read-out: IC50) is no more than 4.00.

`O=C(CSCCCC(Cc1cccc(-c2ccccc2)c1)C(=O)O)NO` (centres unmarked) [2-Biphenyl-3-ylmethyl-5-hydroxy-carbamoylmethylsulfanyl-pentanoic acid]: the negative logarithm of the IC50 (pIC50) (read-out: IC50) was 5.38. Consider `COC(=O)c1ccccc1OCC(=O)NO` [2-Hydroxycarbamoylmethoxy-benzoic acid methyl ester], for which the pIC50 (read-out: IC50) was no more than 4.00.

With `O=C(COc1ccccc1C(=O)O)NO` [2-Hydroxycarbamoylmethoxy-benzoic acid], the negative logarithm of the IC50 (pIC50) (read-out: IC50) is no more than 4.00. For `CC(=O)Nc1cccc(OC(CCCS)C(=O)O)c1` (centres unmarked) [2-[3-(acetylamino)phenoxy]-5-mercapto-pentanoic acid], the pIC50 (read-out: IC50) is 4.56. Broadly, the pKi is the negative decadic logarithm of the Ki, by convention in mol/L. Low values mean a high Ki, high ones a low Ki. `O=C(O)c1ccc(C(=O)O)c(S(=O)(=O)c2cc(C(=O)O)ccc2C(=O)O)c1` [2-[(2,5-dicarboxyphenyl)sulfonyl]-1,4-benzenedicarboxylic acid] gave a pKi of 5.73. `O=C(O)c1ccc(COc2cccc(CCS)c2C(=O)O)c(Br)c1` [2-[(2-bromo-4-carboxyphenyl)methoxy]-6-(2-mercaptoethyl)-benzoic acid]: where the note is “read-out: IC50”, the pIC50 was 8.58. Same read-out and setting: then `O=C(O)c1ccccc1COc1cccc(CCS)c1C(=O)O` [2-[(2-carboxyphenyl)methoxy]-6-(2-mercaptoethyl)-benzoic acid], with 7.94. `O=C(O)c1ccc(C(=O)O)c(Sc2ccccc2C(=O)O)c1` [2-[(2-carboxyphenyl)thio]-1,4-benzenedicarboxylic acid] gave a pKi of 6.24. With `O=C(O)c1c(CCS)cccc1OCc1ccccc1Cl` [2-[(2-chlorophenyl)methoxy]-6-(2-mercaptoethyl)-benzoic acid], for the setting “read-out: IC50”, the pIC50 was 6.80. As to `O=C(O)c1ccc(COc2cccc(CCS)c2C(=O)O)cc1Br` [2-[(3-bromo-4-carboxyphenyl)methoxy]-6-(2-mercaptoethyl)-benzoic acid], where the note is “read-out: IC50”, the pIC50 was 10.01.

`COc1cc(C(=O)O)ccc1COc1cccc(CCS)c1C(=O)O` [2-[(4-carboxy-2-methoxyphenyl)methoxy]-6-(2-mercaptoethyl)-benzoic acid]: for the setting “read-out: IC50”, the pIC50 is 8.15. Consider `COc1cc(COc2cccc(CCS)c2C(=O)O)ccc1C(=O)O` [2-[(4-carboxy-3-methoxyphenyl)methoxy]-6-(2-mercaptoethyl)-benzoic acid], for which the pIC50 (read-out: IC50) is 7.98. Regarding `O=C(O)c1ccc(COc2cccc(CCS)c2C(=O)O)cc1` [2-[(4-carboxyphenyl)methoxy]-6-(2-mercaptoethyl)-benzoic acid], the negative logarithm of the IC50 (pIC50) (read-out: IC50) was 8.40. In turn, `O=C(O)c1ccc(S(=O)(=O)c2cc(C(=O)O)ccc2C(=O)O)cc1` [2-[(4-carboxyphenyl)sulfonyl]-1,4-benzenedicarboxylic acid] had a pKi of 5.63. Turning to `CC(C)(C)c1cc(COc2cccc(CCS)c2C(=O)O)cc(C(=O)O)c1` [2-[[3-carboxy-5-(1,1-dimethylethyl)phenyl]methoxy]-6-(2-mercaptoethyl)-benzoic acid], the negative-log IC50 (pIC50) (read-out: IC50) is 7.63. In the case of `O=C(O)c1ccc(Br)c(CC(CCCS)C(=O)O)c1` (stereo not drawn) [2-bromo-5-carboxy-alpha-(3-mercaptopropyl)-benzenepropanoic acid], under “read-out: IC50”, the negative-log IC50 (pIC50) is 8.48. In the case of `O=C(O)c1ccccc1CC(CCCS)C(=O)O` (stereo not drawn) [2-carboxy-alpha-(3-mercaptopropyl)-benzenepropanoic acid], the pIC50 (read-out: IC50) was 5.77. `O=C(O)Cc1cc(C(=O)O)ccc1C(=O)O` [2-carboxymethyl-1,4-benzenedicarboxylic acid] gave a pKi of 5.05. Consider `O=C(O)C(CCCS)Cc1ccccc1Cl` (stereo not drawn) [2-chloro-alpha-(3-mercaptopropyl)-benzenepropanoic acid], for which the pIC50 (read-out: IC50) was 5.87. For the compound `N#Cc1ccccc1CC(CCCS)C(=O)O` (stereo not drawn) [2-cyano-alpha-(3-mercaptopropyl)-benzenepropanoic acid], under “read-out: IC50”, the pIC50 is 6.35. For the compound `O=C(O)c1ccc(Cl)c(OC(CCCS)C(=O)O)c1` (centres unmarked) [3-(1-carboxy-4-mercaptobutoxy)-4-chloro-benzoic acid], the pIC50 (read-out: IC50) is 6.93. For the compound `O=C(O)c1ccc(F)c(OC(CCCS)C(=O)O)c1` (centres unmarked) [3-(1-carboxy-4-mercaptobutoxy)-4-fluoro-benzoic acid], the pIC50 (read-out: IC50) is 6.40.

Regarding `COc1ccc(C(=O)O)cc1OC(CCCS)C(=O)O` (centres unmarked) [3-(1-carboxy-4-mercaptobutoxy)-4-methoxy-benzoic acid], for the setting “read-out: IC50”, the pIC50 was 6.54.

On to `O=C(O)Cc1cccc(OC(CCCS)C(=O)O)c1` (centres unmarked) [3-(1-carboxy-4-mercaptobutoxy)-benzeneacetic acid], for which the pIC50 (read-out: IC50) is 7.19. In the case of `O=C(CCOc1cccc(-c2cccc(C(=O)O)c2)c1C(=O)O)NO` [3-(2-1-Hydroxycarbamoyl-ethoxy)-biphenyl-2,3′-dicarboxylic acid], the pIC50 (read-out: IC50) was 4.83. As to `O=C(CSCCc1cccc(-c2cccc(C(=O)O)c2)c1C(=O)O)NO` [3-(2-1-Hydroxycarbamoyl-methylsulfanyl-ethyl)-biphenyl-2,3′-dicarboxylic acid], where the note is “read-out: IC50”, the pIC50 is 6.59.

As for `COC(=O)c1cccc(CC(C(=O)O)C(=O)NO)c1` (centres unmarked) [3-(2-Carboxy-2-hydroxycarbamoyl-ethyl)-benzoic acid methyl ester], the pIC50 (read-out: IC50) is no more than 4.00. In the case of `O=C(O)c1cccc(CC(C(=O)O)C(=O)NO)c1` (centres unmarked) [3-(2-Carboxy-2-hydroxycarbamoyl-ethyl)-benzoic acid], the pIC50 (read-out: IC50) is 5.34. With `O=C(O)c1cccc(CC(CNO)C(=O)O)c1` (centres unmarked) [3-(2-Carboxy-3-hydroxyamino-propyl)-benzoic acid], for the setting “read-out: IC50”, the pIC50 is 4.36.

For the compound `O=C(CC(Cc1cccc(C(=O)O)c1)C(=O)O)NO` (centres unmarked) [3-(2-Carboxy-3-hydroxycarbamoyl-propyl)-benzoic acid], the pIC50 (read-out: IC50) is 6.16.

Turning to `O=C(CSCC(Cc1cccc(C(=O)O)c1)C(=O)O)NO` (centres unmarked) [3-(2-Carboxy-3-hydroxycarbamoylmethyl-sulfanylpropyl)-benzoic acid], the pIC50 (read-out: IC50) was 5.51.

For `O=C(CCC(Cc1cccc(C(=O)O)c1)C(=O)O)NO` (centres unmarked) [3-(2-Carboxy-4-hydroxycarbamoyl-butyl)-benzoic acid], the pIC50 (read-out: IC50) is 7.32. For `O=C(CSCCC(Cc1cccc(C(=O)O)c1)C(=O)O)NO` (centres unmarked) [3-(2-Carboxy-4-hydroxycarbamoylmethyl-sulfanylbutyl)-benzoic acid], the pIC50 (read-out: IC50) is 5.31. For the compound `O=C(CCCC(Cc1cccc(C(=O)O)c1)C(=O)O)NO` (centres unmarked) [3-(2-Carboxy-5-hydroxycarbamoyl-pentyl)-benzoic acid], the pIC50 (read-out: IC50) was 7.18. With `O=C(CSCCCC(Cc1cccc(C(=O)O)c1)C(=O)O)NO` (centres unmarked) [3-(2-Carboxy-5-hydroxycarbamoylmethyl-sulfanyl-pentyl)-benzoic acid], the pIC50 (read-out: IC50) was 6.40.

For the origin of these results see patent publication US20040186081A1, “Naaladase inhibitors for treating opioid tolerance” (Guilford Pharmaceuticals Inc., priority 2003, published 2004).
